The values below come from patent US20120225889A1, “USE OF MACROCYCLIC LACTONE DERIVATIVES FOR THE TREATMENT OF INFLAMMATORY DISORDERS” (PIRAMAL LIFE SCIENCES LIMITED, priority 2010, published 2012).

Structures are written as SMILES. pIC50: −log10 of the molar value.

The subject of assay [1] is CEBPδ. Put plainly: Gene expression profile using RTQ-PCR: CEBPδ. The assay is classed as cell-based, human. The note with it: 3 μM. As for the experimental part:
(§1) The effect of the compound of example 7 was measured in stimulated untreated cells from the monocytic cell line (THP-1), human monocytes and synovial cells from rheumatoid arthritis patient. The effect of the compound in the THP-1 cell line was measured in terms of gene expression and was expressed as fold changes as compared to the cell stimulated control with no drug treatment.
(§2) THP-1 cells, human monocytes and synovial cells were treated with compound of example 7 or vehicle (0.5% DMSO). Total RNA isolation using a commercial RNA extraction kit (Qiagen Corporation, Germany) The first-strand cDNA was synthesized from total RNA using first strand cDNA synthesis kit from Invitrogen Corporation (California, USA). This was followed by real time quantitative polymerase chain reaction (RTQ PCR) using gene specific primers and standard thermal program of initial denaturation at 95° C. for 5 min and cycles of 95° C. for 10 seconds, followed by 60° C. for 30 seconds (Realplex PCR machine from Eppendorf, Germany). Quantitative measurement of products made during PCR cycles was normalized against a housekeeping gene (Actin) and was used to measure the gene expression as fold changes as compared to respective control.

The target in assay [2] is T1, p38 MAPK (Homo sapiens, UniProt Q16539).
T1 construct: endogenous in cells; host or cells: Jurkat T-cells (ATCC TIB-152, clone E6-1)
T1 sequence (Q16539 whole entry): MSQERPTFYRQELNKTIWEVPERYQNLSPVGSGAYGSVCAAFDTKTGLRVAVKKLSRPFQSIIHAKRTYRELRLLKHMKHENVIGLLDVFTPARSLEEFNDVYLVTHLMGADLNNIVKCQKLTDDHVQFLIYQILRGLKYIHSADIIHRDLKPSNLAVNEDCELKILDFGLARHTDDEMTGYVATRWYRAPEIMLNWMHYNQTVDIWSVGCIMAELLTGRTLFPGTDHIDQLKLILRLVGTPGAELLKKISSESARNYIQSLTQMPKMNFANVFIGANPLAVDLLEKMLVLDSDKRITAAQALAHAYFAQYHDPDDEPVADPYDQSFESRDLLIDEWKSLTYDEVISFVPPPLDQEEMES
The assay can be described thus: p38 MAPK assay in anisomycin stimulated Jurkat T-cells (Western blot). The assay is classed as cell-based. The note with it: 3 μM, phospho-p38 Western blot. As for the experimental part:
The method for identifying inhibitors of p38 MAPK was designed as in reference, Journal of Lipid Research, 40, 1911-1919, (1999), the disclosure of which is incorporated by reference for the teaching of the assay.
Human Jurkat T-cells (ATCC number: TIB-152, clone E6-1, USA) were cultured in culture medium (RPMI 1640 culture medium supplemented with 10% FBS, 100 U/mL penicillin and 100 μg/mL streptomycin) at 37° C., 5% CO2. Culture medium was changed every 2-3 days and always a day prior to the experiment. On the day of the experiment, Jurkat cells were pre-treated with vehicle or test compound at 3 μM, 10 times the IC50 value for IL-6 inhibition in human monocyte assay, for 1 h at 37° C. Subsequently, the cells were stimulated with anisomycin (10 μg/mL; Sigma, USA) for 30 min SB 203580 (1 PM; Sigma, USA) was used as a standard. The sample preparation of the test compound, anisomycin and SB 203580 is as follows: a stock solution (20 mM) of the test compound was prepared in DMSO. […]
Following the stimulation, cells were harvested, rapidly washed with ice-cold PBS and lysed with cold Cell Lytic buffer (Sigma, USA) supplemented with complete protease inhibitor cocktail (Roche, USA) and sodium orthovanadate (Sigma, USA). […] Aliquots of the resulting extracts were analyzed for their protein content using the Coomassie Plus Protein Assay Reagent (Pierce, USA) as per manufacturer's instructions. […]
Background: A western blot detects proteins with antibodies after separation by electrophoresis.

The subject of assay [3] is IL-6. The assay can be described thus: Synovial tissue assay (spontaneous production): IL-6. The assay is classed as cell-based. The note with it: Homo sapiens, synovial tissue cells from rheumatoid arthritis patients, 16 h, read-out: IC50 of IL-6 inhibition. The text has this:
The ability of compounds of the present invention to inhibit spontaneous production of cytokines from freshly isolated human synovial tissue cells was designed as in reference, Lancet, 29, 244-247, (1989) the disclosure of which is incorporated by reference for the teaching of the assay.
Synovial tissue was obtained from rheumatoid arthritis patients undergoing knee replacement surgery. […] Subsequently, the cells were washed 3 times with RPMI 1640 culture medium and resuspended in complete medium (RPMI 1640 culture medium supplemented with 5% FBS and 5% human serum-AB+(Sigma, USA) at a concentration of 1×10^6 cells/mL. The viability of synovial cells was determined by trypan blue dye exclusion and was uniformly ≧98%. For the experiment, 100 μL of cell suspension was added to the wells of a 96-well culture plate (Nunc, USA). Following cell plating, 100 μL of the culture medium and 1 μL of various concentrations of the test compound (test compound was dissolved in DMSO to obtain a stock solution of 20 mM. […] The IC50 values were calculated by a nonlinear regression method using the GraphPad software (Prism 3.03).

For assay [4], the system named is BCL2. The assay can be described thus: Gene expression profile using RTQ-PCR: BCL2. The assay is classed as cell-based, human. The note with it: 3 μM, ± SE, N = 3. On the procedure:
as §1, §2

The pIC50 is the negative decadic logarithm of the IC50, by convention in mol/L. In the case of `C/C=C/C(O)C(C)/C=C/C(=N\O)C(C)C(O)C(C)C1OC(=O)/C(OC)=C/C(C)=C/C(C)C(O)C(CC)C(O)C(C)C/C(C)=C/C=C/C1OC` (stereo not shown) [Compound of example 7, (3Z,5E,13E,15E)-18-((5Z,6E,10E)-3,9-Dihydroxy-5-(hydroxymino)-4,8-dimethyldodeca-6,10-dien-2-yl)-9-ethyl-8,10-dihydroxy-3,17-dimethoxy-5,7,11,13-tetramethyl oxacyclooctadeca-3,5,13,15-tetraen-2-one], the CEBPδ gene expression in assay [1] (Human monocytes, 3 h, ± SE, N = 3) is listed as −1.4 + 0.4 log fold change; in assay [1] (Synovial cells, 12 h, N = 1), −1.1 log fold change; in assay [1] (THP-1 cells, 12 h, ± SE, N = 3), −1.8 + 1.0 log fold change. Also, in assay [2], the “inhibition of p38 MAP kinase” value is recorded as “did not inhibit”. For the same compound, the pIC50 in assay [3] is 6.52. For the same compound, the BCL2 gene expression is −1.7 + 0.4 log fold change in assay [4] (Human monocytes, 3 h) and −1.3 ± 0.8 log fold change in assay [4] (THP-1 cells, 12 h).
